Test results: ChEMBL document CHEMBL2375290, “Nonclassical antifolates, part 3: synthesis, biological evaluation and molecular modeling study of some new 2-heteroarylthio-quinazolin-4-ones” (Eur J Med Chem, 2013)

Legend:
Dihydrofolate reductase = target: T1, Dihydrofolate reductase (Bos taurus, UniProt P00376); experiment: Inhibition of bovine DHFR after 2 mins by spectrophotometry
T1 sequence (P00376 whole entry): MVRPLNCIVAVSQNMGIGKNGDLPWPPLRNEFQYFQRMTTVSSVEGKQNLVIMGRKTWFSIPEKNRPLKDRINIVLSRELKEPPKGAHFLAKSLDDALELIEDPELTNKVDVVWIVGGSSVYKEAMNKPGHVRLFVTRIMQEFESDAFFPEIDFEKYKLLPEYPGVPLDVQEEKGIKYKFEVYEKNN

Staphylococcus aureus = experiment: Antimicrobial activity against Staphylococcus aureus at 200 ug after 24 hrs by agar disc diffusion method; assay type: functional; conditions: read-out: DIZ
SR = experiment: Cytotoxicity against human SR cells at 10 uM after 48 hrs by coulter counter analysis; assay type: functional; conditions: read-out: GI
SF-295 = experiment: Cytotoxicity against human SF295 cells at 10 uM after 48 hrs by coulter counter analysis; assay type: functional; conditions: SF-295, 48 h, read-out: GI
MDA-MB-435 = experiment: Cytotoxicity against human MDA-MB-435 cells at 10 uM after 48 hrs by coulter counter analysis; assay type: functional; conditions: MDA-MB-435, 48 h, read-out: GI
MDA-MB-231 = experiment: Cytotoxicity against human MDA-MB-231 cells at 10 uM after 48 hrs by coulter counter analysis; assay type: functional; conditions: MDA-MB-231, 48 h, read-out: GI
[1] = Cytotoxicity against human EKVX cells at 10 uM after 48 hrs by coulter counter analysis; assay type: functional; conditions: read-out: GI
MOLT-4 = experiment: Cytotoxicity against human MOLT4 cells at 10 uM after 48 hrs by coulter counter analysis; assay type: functional; conditions: MOLT-4, 48 h, read-out: GI
UACC-62 = experiment: Cytotoxicity against human UACC62 cells at 10 uM after 48 hrs by coulter counter analysis; assay type: functional; conditions: UACC-62, 48 h, read-out: GI
Pseudomonas aeruginosa = experiment: Antimicrobial activity against Pseudomonas aeruginosa at 200 ug after 24 hrs by agar disc diffusion method; assay type: functional; conditions: read-out: DIZ
CCRF-CEM = experiment: Cytotoxicity against human CCRF-CEM cells at 10 uM after 48 hrs by coulter counter analysis; assay type: functional; conditions: read-out: GI
RXF 393 = experiment: Cytotoxicity against human RXF393 cells at 10 uM after 48 hrs by coulter counter analysis; assay type: functional; conditions: RXF 393, 48 h, read-out: GI
A549 = experiment: Cytotoxicity against human A549/ATCC cells at 10 uM after 48 hrs by coulter counter analysis; assay type: functional; conditions: A549, 48 h, read-out: GI
UO-31 = experiment: Cytotoxicity against human UO31 cells at 10 uM after 48 hrs by coulter counter analysis; assay type: functional; conditions: UO-31, 48 h, read-out: GI
IGROV-1 = experiment: Cytotoxicity against human IGROV1 cells at 10 uM after 48 hrs by coulter counter analysis; assay type: functional; conditions: IGROV-1, 48 h, read-out: GI
HL-60(TB) = experiment: Cytotoxicity against human HL-60(TB) cells at 10 uM after 48 hrs by coulter counter analysis; assay type: functional; conditions: HL-60, 48 h, read-out: GI
Micrococcus luteus = experiment: Antimicrobial activity against Micrococcus luteus at 200 ug after 24 hrs by agar disc diffusion method; assay type: functional; conditions: read-out: DIZ
NCI-H522 = experiment: Cytotoxicity against human NCI-H522 cells at 10 uM after 48 hrs by coulter counter analysis; assay type: functional; conditions: NCI-H522, 48 h, read-out: GI
NCI-H226 = experiment: Cytotoxicity against human NCI-H226 cells at 10 uM after 48 hrs by coulter counter analysis; assay type: functional; conditions: NCI-H226, 48 h, read-out: GI
Bacillus subtilis = experiment: Antimicrobial activity against Bacillus subtilis at 200 ug after 24 hrs by agar disc diffusion method; assay type: functional; conditions: read-out: DIZ
SNB-75 = experiment: Cytotoxicity against human SNB75 cells at 10 uM after 48 hrs by coulter counter analysis; assay type: functional; conditions: SNB-75, 48 h, read-out: GI
[2] = Cytotoxicity against human NCI-ADR-RES cells at 10 uM after 48 hrs by coulter counter analysis; assay type: functional; conditions: read-out: GI
Malme-3M = experiment: Cytotoxicity against human MALME-3M cells at 10 uM after 48 hrs by coulter counter analysis; assay type: functional; conditions: read-out: GI
Escherichia coli = experiment: Antimicrobial activity against Escherichia coli at 200 ug after 24 hrs by agar disc diffusion method; assay type: functional; conditions: read-out: DIZ
RPMI-8226 = experiment: Cytotoxicity against human RPMI8226 cells at 10 uM after 48 hrs by coulter counter analysis; assay type: functional; conditions: RPMI-8226, 48 h, read-out: GI
NCI-H23 = experiment: Cytotoxicity against human NCI-H23 cells at 10 uM after 48 hrs by coulter counter analysis; assay type: functional; conditions: NCI-H23, 48 h, read-out: GI
CAKI-1 = experiment: Cytotoxicity against human Caki1 cells at 10 uM after 48 hrs by coulter counter analysis; assay type: functional; conditions: CAKI-1, 48 h, read-out: GI
T47D = experiment: Cytotoxicity against human T47D cells at 10 uM after 48 hrs by coulter counter analysis; assay type: functional; conditions: read-out: GI
SK-MEL-5 = experiment: Cytotoxicity against human SK-MEL-5 cells at 10 uM after 48 hrs by coulter counter analysis; assay type: functional; conditions: SK-MEL-5, 48 h, read-out: GI
SNB-19 = experiment: Cytotoxicity against human SNB19 cells at 10 uM after 48 hrs by coulter counter analysis; assay type: functional; conditions: SNB-19, 48 h, read-out: GI
Hs-578T = experiment: Cytotoxicity against human Hs578T cells at 10 uM after 48 hrs by coulter counter analysis; assay type: functional; conditions: read-out: GI
LOX IMVI = experiment: Cytotoxicity against human LOXIMVI cells at 10 uM after 48 hrs by coulter counter analysis; assay type: functional; conditions: read-out: GI
A498 = experiment: Cytotoxicity against human A498 cells at 10 uM after 48 hrs by coulter counter analysis; assay type: functional; conditions: A498, 48 h, read-out: GI
PC-3 = experiment: Cytotoxicity against human PC3 cells at 10 uM after 48 hrs by coulter counter analysis; assay type: functional; conditions: PC-3, 48 h, read-out: GI
MCF7 = experiment: Cytotoxicity against human MCF7 cells at 10 uM after 48 hrs by coulter counter analysis; assay type: functional; conditions: MCF7, 48 h, read-out: GI
OVCAR-4 = experiment: Cytotoxicity against human OVCAR4 cells at 10 uM after 48 hrs by coulter counter analysis; assay type: functional; conditions: OVCAR-4, 48 h, read-out: GI
SN12C = experiment: Cytotoxicity against human SN12C cells at 10 uM after 48 hrs by coulter counter analysis; assay type: functional; conditions: read-out: GI

SMILES | IC50 (Dihydrofolate reductase) | zone of inhibition at 200 µg/disc (Staphylococcus aureus) | inhibition of growth at 10 µM (SR) | inhibition of growth at 10 µM (SF-295) | inhibition of growth at 10 µM (MDA-MB-435) | inhibition of growth at 10 µM (MDA-MB-231) | inhibition of growth at 10 µM [1] | inhibition of growth at 10 µM (MOLT-4) | inhibition of growth at 10 µM (UACC-62) | zone of inhibition at 200 µg/disc (Pseudomonas aeruginosa) | inhibition of growth at 10 µM (CCRF-CEM) | inhibition of growth at 10 µM (RXF 393) | inhibition of growth at 10 µM (A549) | inhibition of growth at 10 µM (UO-31) | inhibition of growth at 10 µM (IGROV-1) | inhibition of growth at 10 µM (HL-60(TB)) | zone of inhibition at 200 µg/disc (Micrococcus luteus) | inhibition of growth at 10 µM (NCI-H522) | inhibition of growth at 10 µM (NCI-H226) | zone of inhibition at 200 µg/disc (Bacillus subtilis) | other results
Cc1ccc2nc(Sc3ncccc3C(=O)O)n(Cc3ccccc3)c(=O)c2c1 | 10 µM | 15 mm | 14.4% | 14.2% | 21.8% | 30.5% | 26.6% | 15.3% | 30.4% | 8 mm | 16.5% | 21.5% | < 10% | 20.6% | 16.3% | < 10% | 12 mm | 24.4% | 21.2% | 16 mm | inhibition of growth at 10 µM (SNB-75): 30%; inhibition of growth at 10 µM [2]: 12.7%; inhibition of growth at 10 µM (Malme-3M): < 10%; zone of inhibition at 200 µg/disc (Escherichia coli): 8 mm; inhibition of growth at 10 µM (RPMI-8226): 25.8%; inhibition of growth at 10 µM (NCI-H23): < 10%; inhibition of growth at 10 µM (CAKI-1): 41.2%; inhibition of growth at 10 µM (T47D): < 10%; inhibition of growth at 10 µM (SK-MEL-5): 14.4%; inhibition of growth at 10 µM (SNB-19): 14.2%; inhibition of growth at 10 µM (Hs-578T): 12.5%; inhibition of growth at 10 µM (LOX IMVI): 13.8%; inhibition of growth at 10 µM (A498): 11.4%; inhibition of growth at 10 µM (PC-3): 32.8%; inhibition of growth at 10 µM (MCF7): 16.6%; inhibition of growth at 10 µM (OVCAR-4): 16.2%; inhibition of growth at 10 µM (SN12C): 11.2%
O=C(O)c1cccnc1Sc1nc2ccc(Cl)cc2c(=O)n1Cc1ccccc1 | 10 µM | 14 mm | 32.8% | 15.7% | < 10% | 24.7% | 25.4% | 16.7% | 16.7% | 8 mm | 17.8% | < 10% | < 10% | 20.3% | 14.7% | < 10% | 8 mm | 13.1% | 18.4% | 18 mm | inhibition of growth at 10 µM (SNB-75): 18.4%; inhibition of growth at 10 µM [2]: < 10%; inhibition of growth at 10 µM (Malme-3M): < 10%; zone of inhibition at 200 µg/disc (Escherichia coli): 8 mm; inhibition of growth at 10 µM (RPMI-8226): 16.3%; inhibition of growth at 10 µM (NCI-H23): < 10%; inhibition of growth at 10 µM (CAKI-1): 30.3%; inhibition of growth at 10 µM (T47D): 14.1%; inhibition of growth at 10 µM (SK-MEL-5): < 10%; inhibition of growth at 10 µM (SNB-19): < 10%; inhibition of growth at 10 µM (Hs-578T): < 10%; inhibition of growth at 10 µM (LOX IMVI): 13.6%; inhibition of growth at 10 µM (A498): < 10%; inhibition of growth at 10 µM (PC-3): 25.2%; inhibition of growth at 10 µM (MCF7): < 10%; inhibition of growth at 10 µM (OVCAR-4): 20.6%; inhibition of growth at 10 µM (SN12C): < 10%
Nc1ncc(Sc2nc3ccc(Cl)cc3c(=O)n2Cc2ccccc2)s1 | 2 µM | 16 mm | < 10% | 16.6% | < 10% | 11.2% | 11.9% | 16.8% | 14.4% | 8 mm | 13.7% | < 10% | < 10% | 14.8% | 12% | < 10% | 8 mm | 16% | 17.1% | 18 mm | inhibition of growth at 10 µM (SNB-75): 10.7%; inhibition of growth at 10 µM [2]: < 10%; inhibition of growth at 10 µM (Malme-3M): 10.8%; zone of inhibition at 200 µg/disc (Escherichia coli): 15 mm; inhibition of growth at 10 µM (RPMI-8226): 18.9%; inhibition of growth at 10 µM (NCI-H23): < 10%; inhibition of growth at 10 µM (CAKI-1): 25.6%; inhibition of growth at 10 µM (T47D): 10.4%; inhibition of growth at 10 µM (SK-MEL-5): < 10%; inhibition of growth at 10 µM (SNB-19): < 10%; inhibition of growth at 10 µM (Hs-578T): < 10%; inhibition of growth at 10 µM (LOX IMVI): 14.9%; inhibition of growth at 10 µM (A498): 11.2%; inhibition of growth at 10 µM (PC-3): 28.2%; inhibition of growth at 10 µM (MCF7): < 10%; inhibition of growth at 10 µM (OVCAR-4): 13.8%; inhibition of growth at 10 µM (SN12C): < 10%
